Earlier results on 1 molecule are cited in patent US20090105346A1, “Novel crystalline forms of armodafinil and preparation thereof” (priority 2007, published 2009).

For this data set the following is noted: S enantiomer of modafinil compared with R enantiomer; Prisinzano et al., Tetrahedron: Asymmetry (2004).

On to `NC(=O)C[S+]([O-])C(c1ccccc1)c1ccccc1` (single isomer, unassigned) [S enantiomer], for which the “elimination from the body relative to the R enantiomer” value is given as “three times faster”.
